Laboratory results as given in ChEMBL document CHEMBL3232749, “Exploring the water-binding pocket of the type II dehydroquinase enzyme in the structure-based design of inhibitors” (J Med Chem, 2014).

How the values were obtained:
[1] = Reversible competitive inhibition of Mycobacterium tuberculosis DHQ2 assessed as conversion of 3-dehydroquinic acid to 3-dehydroshikimic acid by Dixon plot analysis
[2] = target: T1, 3-dehydroquinate dehydratase (Helicobacter pylori (strain ATCC 700392 / 26695) (Campylobacterpylori), UniProt Q48255); test: Reversible competitive inhibition of Helicobacter pylori DHQ2 assessed as conversion of 3-dehydroquinic acid to 3-dehydroshikimic acid by Dixon plot analysis
T1 sequence (Q48255 whole entry): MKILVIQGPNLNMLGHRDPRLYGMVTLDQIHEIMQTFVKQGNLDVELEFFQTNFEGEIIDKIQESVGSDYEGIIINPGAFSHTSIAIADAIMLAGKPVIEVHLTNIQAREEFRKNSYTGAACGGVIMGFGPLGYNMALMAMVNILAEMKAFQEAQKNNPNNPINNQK

Row | Structure (SMILES) | Ki [1] | Ki [2]
1 | O=C(O)[C@]1(O)C=C([C@@H](O)Cc2ccccc2)[C@@H](O)[C@H](O)C1 | 34 µM | 37 µM
2 | O=C(O)[C@]1(O)C=C(CO)[C@@H](O)[C@H](O)C1 | 11.2 µM | 282 µM
3 | O=C(O)[C@]1(O)C=C(CCO)[C@@H](O)[C@H](O)C1 | 15 µM | 188 µM
4 | O=C(O)[C@]1(O)C=C([C@H](O)Cc2ccccc2)[C@@H](O)[C@H](O)C1 | 27 µM | 33 µM
5 | O=C(O)[C@]1(O)C=C([C@@H](Cl)Cc2ccccc2)[C@@H](O)[C@H](O)C1 | 14.5 µM | 40.5 µM
6 | O=C(O)[C@]1(O)C=C([C@H](Cl)Cc2ccccc2)[C@@H](O)[C@H](O)C1 | 0.48 µM | 10.5 µM
